Reference: patent publication US7465722B2, “Biphenyl vasopressin agonists” (Wyeth, priority 2001, dated 2008)

Columns and labels:
Vasopressin V2 = molecular target: T1, Vasopressin V2 (Rattus norvegicus, UniProt Q00788); assay: Vasopressin V2 agonist effects of test compounds in normal conscious water-loaded rats; type: in vivo; details: oral dose of 10 mg/Kg, urine collected for four hours, Sprague-Dawley (CD) rats; for Urine Volume (% decrease): percent decrease in urine volume vs control; for Urinary Osmolality (% increase): percent increase in osmolality vs control
T1 construct: Vasopressin V2 Agonist Effects of Test Compounds in Normal Conscious Water-Loaded Rats; from tissue; host or cells: whole animal: conscious Sprague-Dawley rats (kidney collecting ducts in vivo)
Text: Vasopressin V2 Agonist Effects of Test Compounds in Normal Conscious Water-Loaded Rats
Male or female normotensive Sprague-Dawley rats (Charles River Laboratories, Inc., Kingston, N.Y.) of 350-500 g body weight were supplied with standard rodent diet (Purina Rodent Lab. Chow 5001) and water ad libitum. On the day of test, rats were placed individually into metabolic cages equipped with devices to separate the feces from the urine and containers for collection of urine. A test compound or a reference agent was given at an oral dose of 10 mg/Kg in a volume of 10 mL/Kg. The vehicle used was 2.5% preboiled corn starch in 20% dimethylsulfoxide (DMSO). Thirty minutes after dosing the test compound, rats were gavaged with water at 30 mL/Kg into the stomach using a feeding needle. During the test, rats were not provided with water or food. Urine was collected for four hours after dosing of the test compound. At the end of four hours, urine volume was measured. Urinary osmolality was determined using a Fiske One-Ten Osmometer (Fiske Associates, Norwood, Mass., 02062) or an Advanced CRYOMATIC Osmometer, Model 3C2 (Advanced Instruments, Norwood, Mass.). Determinations of Na^+, K^+ and Cl^− ion were carried out using ion specific electrodes in a Beckman SYNCHRON ELISE Electrolyte System analyzer. The urinary osmolality should increase proportionally. In the screening test, two rats were used for each compound. If the difference in the urine volume of the two rats was greater than 50%, a third rat was used.

T1 sequence (Q00788 whole entry): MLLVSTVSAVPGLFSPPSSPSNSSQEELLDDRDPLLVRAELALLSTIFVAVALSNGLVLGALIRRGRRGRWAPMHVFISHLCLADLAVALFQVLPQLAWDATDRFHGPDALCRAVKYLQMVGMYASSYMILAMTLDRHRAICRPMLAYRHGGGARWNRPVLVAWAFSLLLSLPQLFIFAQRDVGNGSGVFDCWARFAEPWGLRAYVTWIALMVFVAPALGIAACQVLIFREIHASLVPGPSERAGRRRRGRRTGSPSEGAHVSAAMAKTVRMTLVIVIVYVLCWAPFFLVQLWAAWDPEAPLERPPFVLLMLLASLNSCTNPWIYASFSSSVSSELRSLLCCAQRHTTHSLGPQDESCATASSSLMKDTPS

SMILES	Urine Volume (% decrease) (Vasopressin V2)	Urinary Osmolality (% increase) (Vasopressin V2)	melting point
COc1ccccc1-c1ccc(C(=O)N2Cc3cccn3Cc3ccccc32)cc1 [Example 1, (2′-Methoxy-[1,1′-biphenyl]-4-yl)-(5H,11H-pyrrolo[2,1-c][1,4]benzodiazepin-10-yl)-methanone]	67%	163%	145 to 147 °C
Cc1cccc(-c2ccc(C(=O)N3Cc4cccn4Cc4ccccc43)cc2)c1 [Example 2, (10,11-Dihydro-5H-pyrrolo[2,1-c][1,4]benzodiazepin-10-yl)-(3′-methyl-[1,1′-biphenyl]-4-yl)-methanone]	27%	33%	128 to 130 °C
COc1ccc(-c2ccc(C(=O)N3Cc4cccn4Cc4ccccc43)cc2)cc1 [Example 3, (10,11-Dihydro-5H-pyrrolo[2,1-c][1,4]benzodiazepin-10-yl)-(4′-methoxy[1,1′-biphenyl]-4-yl)-methanone]	18%	78%	187 to 189 °C
O=C(c1ccc(-c2ccccc2)cc1)N1Cc2cccnc2Nc2ccccc21 [Example 4, [1,1′-Biphenyl]-4-yl-(5,11-dihydro-benzo[b]pyrido[2,3-e][1,4]diazepin-6-yl)-methanone]	56%	151%	175 to 177 °C
CN1c2ccccc2N(C(=O)c2ccc(-c3ccccc3)cc2)Cc2cccnc21 [Example 5, [1,1′-Biphenyl]-4-yl-(11-methyl-5,11-dihydro-benzo[b]pyrido[2,3-e][1,4]diazepin-6-yl)-methanone]	22%	26%	220 to 223 °C
O=C(c1ccc(-c2ccccc2)cc1)N1Cc2ccccc2Nc2ccccc21 [Example 6, [1,1′-Biphenyl]-4-yl-(5,11-dihydro-10H-dibenzo[b,e][1,4]diazepin-10-yl)methanone]	87%	247%	180 to 182 °C
CN1c2ccccc2CN(C(=O)c2ccc(-c3ccccc3)cc2)c2ccccc21 [Example 7, [1,1′-Biphenyl]-4-yl-(5-methyl-5,11-dihydro-10H-dibenzo[b,e][1,4]diazepin-10-yl)methanone]	70%	189%	198 to 201 °C

Second part, the compound after the results:

Urine Volume (% decrease) (Vasopressin V2)	Urinary Osmolality (% increase) (Vasopressin V2)	melting point	SMILES
35%	73%	164 to 166 °C	O=C(c1ccc(-c2ccccc2)cc1)N1CCCCc2sccc21 [Example 8, [1,1′-Biphenyl]-4-yl-(5,6,7,8-tetrahydro-thieno[3,2-b]azepin-4-yl)-methanone]
62%	156%	171 to 174 °C	O=C(c1ccc(-c2ccccc2)nc1)N1Cc2cccn2Cc2ccccc21 [Example 9, (5H,11H-Benzo[e]pyrrolo[1,2-a][1,4]diazepin-10-yl)-(6-phenyl-pyridin-3-yl)-methanone]
60%	234%		COc1ccc(-c2ccc(C(=O)N3Cc4cccn4Cc4ccccc43)c(C)c2)cc1 [Example 10, (5H,11H-Benzo[e]pyrrolo[1,2-a][1,4]diazepin-10-yl)-(4′-methoxy-3-methyl-[1,1′-biphenyl]-4-yl)-methanone]
